Assay results: patent US20090030024A1, “THIAZOLES AS FUNGICIDES” (priority 2005, published 2009)

Experiment: logP determination by retention times (calibration with alkan-2-ones)
Details: logP, values marked *: HPLC on reversed-phase C 18, 40° C., mobile phase 0.1% aqueous formic acid and acetonitrile, linear gradient 10% to 95% acetonitrile

Row | Structure (SMILES) | chromatographic logP
1 | CCc1nc(C)c(-c2nc(Nc3ccc(Cl)cc3)ncc2Cl)s1 [Example 877, 5-chloro-N-(4-chlorophenyl)-4-(2-ethyl-4-methyl-1,3-thiazol-5-yl)pyrimidine-2-amine] | 4.48
2 | CCc1nc(C)c(-c2nc(Nc3ccccc3Cl)ncc2Cl)s1 [Example 878, 5-chloro-N-(2-chlorophenyl)-4-(2-ethyl-4-methyl-1,3-thiazol-5-yl)pyrimidine-2-amine] | 4.62
3 | CCc1nc(C)c(-c2ccnc(Nc3ccc(N(C)C)cc3)n2)s1 [Example 879, N′-[4-(2-ethyl-4-methyl-1,3-thiazol-5-yl)pyrimidin-2-yl]-N,N-dimethylbenzene-1,4-diamine] | 1.56
4 | CCc1nc(C)c(-c2ccnc(Nc3cccc(N(C)C)c3)n2)s1 [Example 880, N′-[4-(2-ethyl-4-methyl-1,3-thiazol-5-yl)pyrimidin-2-yl]-N,N-dimethylbenzene-1,3-diamine] | 1.99
5 | CCc1nc(C)c(-c2ccnc(Nc3ccc(C(=O)OCCOC)cc3)n2)s1 [Example 881, 2-methoxyethyl-4-{[4-(2-ethyl-4-methyl-1,3-thiazol-5-yl)pyrimidin-2-yl]amino}benzoate] | 2.91
6 | Cc1nc(C(C)(C)C)sc1-c1ccnc(Nc2ccccc2)n1 [Example 882, 4-(2-tert-butyl-4-methyl-1,3-thiazol-5-yl)-N-phenylpyrimidine-2-amine] | 4.24
7 | Cc1nc(C(C)(C)C)sc1-c1ccnc(Nc2ccc(F)cc2)n1 [Example 883, 4-(2-tert-butyl-4-methyl-1,3-thiazol-5-yl)-N-(4-fluorophenyl)pyrimidine-2-amine] | 4.18
8 | Cc1nc(C(C)(C)C)sc1-c1ccnc(Nc2cccc(Cl)c2)n1 [Example 884, 4-(2-tert-butyl-4-methyl-1,3-thiazol-5-yl)-N-(3-chlorophenyl)pyrimidine-2-amine] | 4.82
9 | CC(=O)c1ccc(Nc2nccc(-c3sc(C(C)(C)C)nc3C)n2)cc1 [Example 885, 1-(4-{[4-(2-tert-butyl-4-methyl-1,3-thiazol-5-yl)pyrimidin-2-yl]amino}phenyl)ethanone] | 4.22
10 | COc1ccc(Nc2nccc(-c3sc(C(C)(C)C)nc3C)n2)cn1 [Example 886, 4-(2-tert-butyl-4-methyl-1,3-thiazol-5-yl)-N-(6-methoxypyridin-3-yl)pyrimidine-2-amine] | 3.42
11 | CC(=O)c1cccc(Nc2nccc(-c3sc(C(C)(C)C)nc3C)n2)c1 [Example 887, 1-(3-{[4-(2-tert-butyl-4-methyl-1,3-thiazol-5-yl)pyrimidin-2-yl]amino}phenyl)ethanone] | 3.66
12 | COc1cc(Nc2nccc(-c3sc(C(C)(C)C)nc3C)n2)cc(OC)c1OC [Example 888, 4-(2-tert-butyl-4-methyl-1,3-thiazol-5-yl)-N-(3,4,5-trimethoxyphenyl)pyrimidine-2-amine] | 3.48
13 | COCC(C)Nc1nc(C)c(-c2ccnc(Nc3ccc4c(c3)C(=O)OC4)n2)s1 (stereo not shown) [Example 889, 6-[(4-{2-[(2-methoxy-1-methylethyl)amino]-4-methyl-1,3-thiazol-5-yl}pyrimidin-2-yl)amino]-2-benzofuran-1(3H)-one] | 1.65
14 | COCCNc1nc(C)c(-c2ccnc(Nc3ccc4c(c3)C(=O)OC4)n2)s1 [Example 890, 6-[(4-{2-[(2-methoxyethyl)amino]4-methyl-1,3-thiazol-5-yl}pyrimidin-2-yl)amino]-2-benzofuran-1(3H)-one] | 1.53
15 | Cc1nc(NCCO)sc1-c1ccnc(Nc2ccc(F)cc2)n1 [Example 891, 2-[(5-{2-[(4-fluorophenyl)amino]pyrimidin-4-yl}-4-methyl-1,3-thiazol-2-yl)amino]ethanol] | 1.5
16 | COCCNc1nc(C)c(-c2ccnc(Nc3ccc(C)c(C)c3)n2)s1 [Example 896, N-(3,4-dimethylphenyl)-4-{2-[(2-methoxyethyl)amino]-4-methyl-1,3-thiazol-5-yl}pyrimidine-2-amine] | 2.08
17 | COCCNc1nc(C)c(-c2ccnc(Nc3ccc(F)c(F)c3)n2)s1 [Example 897, N-(3,4-difluorophenyl)-4-{2-[(2-methoxyethyl)amino]-4-methyl-1,3-thiazol-5-yl}pyrimidine-2-amine] | 2.15
18 | COCCNc1nc(C)c(-c2ccnc(Nc3ccc(Cl)cc3)n2)s1 [Example 898, N-(4-chlorophenyl)-4-{2-[(2-methoxyethyl)amino]-4-methyl-1,3-thiazol-5-yl}pyrimidine-2-amine] | 2.24
19 | COCCOc1nc(C)c(-c2ccnc(Nc3ccc(F)cc3)n2)s1 [Example 899, N-(4-fluorophenyl)-4-[2-(2-methoxyethoxy)-4-methyl-1,3-thiazol-5-yl]pyrimidine-2-amine] | 3.12
20 | COCCOc1nc(C)c(-c2ccnc(Nc3ccccc3)n2)s1 [Example 901, 4-[2-(2-methoxyethoxy)-4-methyl-1,3-thiazol-5-yl]-N-phenylpyrimidine-2-amine] | 3.01

Row | Structure (SMILES) | chromatographic logP
21 | CCc1nc(C)c(-c2nc(Nc3ccccc3)ncc2Br)s1 [Example 902, 5-bromo-4-(2-ethyl-4-methyl-1,3-thiazol-5-yl)-N-phenylpyrimidine-2-amine] | 3.82
22 | Cc1nc(C(C)C)sc1-c1nc(Nc2ccccc2)ncc1Cl [Example 903, 5-chloro-4-(2-isopropyl-4-methyl-1,3-thiazol-5-yl)-N-phenylpyrimidine-2-amine] | 4.27
23 | Cc1nc(C(C)C)sc1-c1nc(Nc2ccccc2)ncc1Br [Example 904, 5-bromo-4-(2-isopropyl-4-methyl-1,3-thiazol-5-yl)-N-phenylpyrimidine-2-amine] | 4.32
24 | CCc1nc(C)c(-c2nc(Nc3cc(OC)c(OC)c(OC)c3)ncc2Br)s1 [Example 905, 5-bromo-4-(2-ethyl-4-methyl-1,3-thiazol-5-yl)-N-(3,4,5-trimethoxyphenyl)pyrimidine-2-amine] | 3.29
25 | COc1cc(Nc2ncc(Br)c(-c3sc(C)nc3C)n2)cc(OC)c1OC [Example 906, 5-bromo-4-(2,4-dimethyl-1,3-thiazol-5-yl)-N-(3,4,5-trimethoxyphenyl)pyrimidine-2-amine] | 2.85
26 | CCc1nc(C)c(-c2nc(Nc3cc(OC)c(OC)c(OC)c3)ncc2Cl)s1 [Example 907, 5-chloro-4-(2-ethyl-4-methyl-1,3-thiazol-5-yl)-N-(3,4,5-trimethoxyphenyl)pyrimidine-2-amine] | 3.2
27 | COc1cc(Nc2ncc(Br)c(-c3sc(C(C)C)nc3C)n2)cc(OC)c1OC [Example 908, 5-bromo-4-(2-isopropyl-4-methyl-1,3-thiazol-5-yl)-N-(3,4,5-trimethoxyphenyl)pyrimidine-2-amine] | 3.65
28 | Cc1nc(C)c(-c2nc(Nc3ccccc3)ncc2Br)s1 [Example 909, 5-bromo-4-(2,4-dimethyl-1,3-thiazol-5-yl)-N-phenylpyrimidine-2-amine] | 3.3
29 | COCCOc1nc(C)c(-c2ccnc(Nc3cc(OC)c(OC)c(OC)c3)n2)s1 [Example 910, 4-[2-(2-methoxyethoxy)-4-methyl-1,3-thiazol-5-yl]-N-(3,4,5-trimethoxyphenyl)pyrimidine-2-amine] | 2.53
30 | COCCOc1nc(C)c(-c2ccnc(Nc3cccc([N+](=O)[O-])c3)n2)s1 [Example 911, 4-[2-(2-methoxyethoxy)-4-methyl-1,3-thiazol-5-yl]-N-(3-nitrophenyl)pyrimidine-2-amine] | 3.08
31 | COCCOc1nc(C)c(-c2ccnc(Nc3cccc(C(C)=O)c3)n2)s1 [Example 912, 1-[3-({4-[2-(2-methoxyethoxy)-4-methyl-1,3-thiazol-5-yl]pyrimidin-2-yl}amino)phenyl]ethanone] | 2.64
32 | COCCOc1nc(C)c(-c2ccnc(Nc3cccc(Cl)c3)n2)s1 [Example 913, N-(3-chlorophenyl)-4-[2-(2-methoxyethoxy)-4-methyl-1,3-thiazol-5-yl]pyrimidine-2-amine] | 3.57
33 | COCCOc1nc(C)c(-c2ccnc(Nc3cccc(OC)c3)n2)s1 [Example 914, 4-[2-(2-methoxyethoxy)-4-methyl-1,3-thiazol-5-yl]-N-(3-methoxyphenyl)pyrimidine-2-amine] | 2.92
34 | COCCOc1nc(C)c(-c2ccnc(Nc3ccc(OC)nc3)n2)s1 [Example 915, 4-[2-(2-methoxyethoxy)-4-methyl-1,3-thiazol-5-yl]-N-(6-methoxypyridin-3-yl)pyrimidine-2-amine] | 2.34
35 | COCCOc1nc(C)c(-c2ccnc(Nc3ccc(C(C)=O)cc3)n2)s1 [Example 916, 1-[4-({4-[2-(2-methoxyethoxy)-4-methyl-1,3-thiazol-5-yl]pyrimidin-2-yl}amino)phenyl]ethanone] | 2.58
36 | COCCOc1nc(C)c(-c2ccnc(Nc3ccc(N4CCCC4=O)cc3)n2)s1 [Example 917, 1-[4-({4-[2-(2-methoxyethoxy)-4-methyl-1,3-thiazol-5-yl]pyrimidin-2-yl}amino)phenyl]pyrrolidin-2-one] | 2.23
37 | Cc1nc(C(C)C)sc1-c1ccnc(Nc2cccnc2)n1 [Example 919, 4-(2-isopropyl-4-methyl-1,3-thiazol-5-yl)-N-pyridin-3-ylpyrimidine-2-amine] | 1.51
38 | CCc1nc(C)c(-c2nc(Nc3cccc(Cl)c3)ncc2Br)s1 [Example 920, 5-bromo-N-(3-chlorophenyl)-4-(2-ethyl-4-methyl-1,3-thiazol-5-yl)pyrimidine-2-amine] | 4.36
39 | CCc1nc(C)c(-c2nc(Nc3ccc(S(=O)(=O)N(C)C)cc3)ncc2Br)s1 [Example 921, 4-{[5-bromo-4-(2-ethyl-4-methyl-1,3-thiazol-5-yl)pyrimidin-2-yl]amino}-N,N-dimethylbenzenesulphonamide] | 3.36
40 | Cc1nc(C(C)C)sc1-c1nc(Nc2cccc(Cl)c2)ncc1Br [Example 922, 5-bromo-N-(3-chlorophenyl)-4-(2-isopropyl-4-methyl-1,3-thiazol-5-yl)pyrimidine-2-amine] | 4.9
